Results as given in patent publication US9981916B2 (Genentech, Inc., priority 2013, dated 2018).

Molecular target: T1, RORc ligand binding domain (Homo sapiens, UniProt P51449)
T1 construct: host or cells: E. coli
T1 sequence (P51449 269-508 limits assumed): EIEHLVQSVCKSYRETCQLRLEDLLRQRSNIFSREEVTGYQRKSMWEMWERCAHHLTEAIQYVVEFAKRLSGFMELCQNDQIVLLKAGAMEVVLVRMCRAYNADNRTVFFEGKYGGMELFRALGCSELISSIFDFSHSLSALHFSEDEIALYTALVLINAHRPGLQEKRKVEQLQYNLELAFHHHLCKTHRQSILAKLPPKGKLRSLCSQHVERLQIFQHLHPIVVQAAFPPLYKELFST
Test: In vitro RORc ligand binding assay (25-[3H]hydroxycholesterol displacement, filter binding)
Conditions: 6 nM 25-[3H]hydroxycholesterol, 0.6 ug/mL RORc receptor, 3 h at 25° C.
Procedure: Example 17: In Vitro RORc Ligand Binding Assay
This assay was used to determine a compound's potency in inhibiting activity of RORc by determining, Kiapp, IC50, or percent inhibition values.
On day of the assay, 100 uL of 0.05% CHAPS (in deionized H2O) was added to all wells of the GFB Unifilter plate and allowed soak for 1 h. A wash buffer of 50 mM HEPES (pH 7.4), 150 mM NaCl, and 5 mM MgCl2 was prepared to wash the filter plate. To prepare an assay buffer, BSA was added to the wash buffer to reach 0.01% and DTT was added to reach 1 mM.
For IC50 mode, 10 mM compound stocks were serially diluted in DMSO with DMSO to give 20× required final concentration in DMSO (15 uL compound+30 uL DMSO). The 20× compound stocks were diluted in DMSO with Assay Buffer 4-fold to reach 5× the final test concentration in 25% DMSO (10 uL compound+30 uL Assay Buffer). Solutions were mixed by aspiration several times with a pipette set on 50 uL volume. For the assay, 10 uL of 5× compound stock solutions in 25% DMSO were added to the assay plate in duplicate.
For two point screening, 10 mM stock compound solutions were diluted in DMSO to obtain 200 uM (20× the high test concentration) and then diluted 10-fold further to reach 20 uM (20× the low test concentration). The 20× stocks were diluted 4-fold with Assay Buffer (10 uL compound+30 uL Assay Buffer) to reach 5× the test concentrations (50 uM and 5 uM) and 10 uL were added to two assay plates for the duplicate wells. With each concentration tested on 2 plates, each set of 80 compounds used 4 assay plates (1 uM and 10 uM, with n=2).
25-hydroxycholesterol (1 uM) was used to determine the level of NSB signal is prepared in DMSO as for compounds above, then diluted in Assay Buffer to give a final concentration of 5 uM. For 25-hydroxycholesterol in 25% DMSO/75% Assay Buffer; 10 uL per well was used for NSB samples. Wells for Total Binding and No Receptor sample determination contained 10 uL of 25% DMSO/75% Assay Buffer per well.
25-[^3H]hydroxycholesterol was diluted in Assay Buffer to obtain 15 nM and vortex to mix. Add 20 uL to all wells to reach 6 nM final concentration in the assay.
Stock receptor solution was diluted in assay buffer to obtain 1.5 ug/mL in Assay Buffer. 20 uL was added to all wells. For No Receptor samples, 20 uL Assay Buffer was substituted for receptor solution.
Assay plates were 96-well polypropylene V-bottom plates. 10 uL of 5× compound in 25% DMSO/75% Assay Buffer was added to Test wells. 10 uL of 25% DMSO/75% Assay Buffer was added to Total Binding or No Receptor wells. 10 uL of 5 uM 25-hydroxycholesterol in 25% DMSO/75% Assay Buffer was added to NSB wells. 20 uL of 15 nM 25-[^3H]hydroxycholesterol prepared in Assay Buffer was added to all wells. 20 uL of 1.5 ug/mL RORc receptor was added to wells (or […] Assay Buffer to No R wells). Following addition to the wells, the plates were incubated 3 h at 25° C.
Using a Packard Filtermate Harvester, the filter plate were washed 4 times following transfer of the incubated samples. Plates were dry-filtered completely (2 h at 50° C. or overnight at room temperature). 50 uL Microscint 0 was added to all wells and read on Topcount protocol Inverted.
Final concentrations were as follows: 50 mM HEPES buffer (pH 7.4); 150 mM NaCl; 1 mM DTT; 5 mM MgCl2; 0.01% BSA; 5% DMSO; 0.6 ug/mL RORc receptor; 6 nM 25-[^3H]hydroxycholesterol. For NSB wells, 1 uM 25-hydroxycholesterol was also present.

Row | IC50 | SMILES
1 | 0.307 µM | CC1(C)[C@@H]2CC[C@@]1(C(=O)N1CC(CC#N)C1)c1nnc(-c3c(F)cccc3F)cc12 [Example 264, 2-(1-((5S,8S)-3-(2,6-difluorophenyl)-9,9-dimethyl-5,6,7,8-tetrahydro-5,8-methanocinnoline-8-carbonyl)azetidin-3-yl)acetonitrile]
2 | 0.027 µM | Cc1cnc([C@@]23CC[C@@H](c4cc(-c5c(F)cccc5F)nnc42)C3(C)C)o1 [Example 112, (5R,8R)-3-(2,6-difluorophenyl)-9,9-dimethyl-8-(5-methyl-1,3-oxazol-2-yl)-5,6,7,8-tetrahydro-5,8-methanocinnoline]
3 | 0.693 µM | CC1(C)CN(C(=O)[C@]23CC[C@H](c4cc(-c5c(F)cccc5F)nnc42)C3(C)C)C1 [Example 74, [(5S,8S)-3-(2,6-difluorophenyl)-9,9-dimethyl-6,7-dihydro-5,8-methanocinnolin-8(5H)-yl](3,3-dimethylazetidin-1-yl)methanone]
4 | 2.81 µM | Cc1c[nH]nc1C1CN(C(=O)[C@@]23CC[C@@H](c4cc(-c5ccccc5F)nnc42)C3(C)C)C1 [Example 179, ((5R,8R)-3-(2-fluorophenyl)-9,9-dimethyl-5,6,7,8-tetrahydro-5,8-methanocinnolin-8-yl)(3-(4-methyl-1H-pyrazol-3-yl)azetidin-1-yl)methanone]
5 | 0.393 µM | CN(C(=O)CO)[C@@]12CC[C@@H](c3cc(-c4c(F)cccc4F)nnc31)C2(C)C [Example 313, N-((5R,8R)-3-(2,6-difluorophenyl)-9,9-dimethyl-5,6,7,8-tetrahydro-5,8-methanocinnolin-8-yl)-2-hydroxy-N-methylacetamide]
6 | 0.657 µM | C=C1C[C@@H]2c3cc(-c4ccccc4F)nnc3[C@@]1(C)C2(C)C [Example 51, (5S,8R)-3-(2-fluorophenyl)-8,9,9-trimethyl-7-methylidene-5,6,7,8-tetrahydro-5,8-methanocinnoline]
7 | 0.068 µM | Cc1ocnc1[C@@]12CC[C@@H](c3cc(-c4c(F)cccc4F)nnc31)C2(C)C [Example 193, 4-((5R,8S)-3-(2,6-difluorophenyl)-9,9-dimethyl-5,6,7,8-tetrahydro-5,8-methanocinnolin-8-yl)-5-methyloxazole]
8 | 0.106 µM | Cc1nc(C[C@@]23CC[C@@H](c4cc(-c5c(F)cccc5F)nnc42)C3(C)C)no1 [Example 59, (5R,8R)-3-(2,6-difluorophenyl)-9,9-dimethyl-8-[(5-methyl-1,2,4-oxadiazol-3-yl)methyl]-5,6,7,8-tetrahydro-5,8-methanocinnoline]
9 | 0.037 µM | CC[C@]12CC[C@H](c3cc(-c4ccccc4F)nnc31)C2(C)C [Example 35, (5S,8R)-8-ethyl-3-(2-fluorophenyl)-9,9-dimethyl-5,6,7,8-tetrahydro-5,8-methanocinnoline]
10 | 0.822 µM | CC1(C)[C@H]2CC[C@]1(c1nnc(N)o1)c1nnc(-c3c(F)cccc3F)cc12 [Example 255, 5-((5R,8R)-3-(2,6-difluorophenyl)-9,9-dimethyl-5,6,7,8-tetrahydro-5,8-methanocinnolin-8-yl)-1,3,4-oxadiazol-2-amine]
11 | 0.314 µM | CC1(C)[C@@H]2CC[C@@]1(C(=O)N1CCC(CCO)C1)c1nnc(-c3c(F)cccc3F)cc12 (stereo partly drawn) [Example 262, ((5S,8S)-3-(2,6-difluorophenyl)-9,9-dimethyl-5,6,7,8-tetrahydro-5,8-methanocinnolin-8-yl)(3-(2-hydroxyethyl)pyrrolidin-1-yl)methanone]
12 | 0.142 µM | CC1(C)[C@@H]2CC[C@@]1(C(=O)N1CCC(C(F)(F)F)C1)c1nnc(-c3c(F)cccc3F)cc12 (stereo partly drawn) [Example 208, ((5S,8S)-3-(2,6-difluorophenyl)-9,9-dimethyl-5,6,7,8-tetrahydro-5,8-methanocinnolin-8-yl)(3-(trifluoromethyl)pyrrolidin-1-yl)methanone]
13 | 0.88 µM | CNC(=O)C[C@]12CC[C@H](c3cc(-c4ccccc4F)nnc31)C2(C)C [Example 37, 2-[(5S,8S)-3-(2-fluorophenyl)-9,9-dimethyl-6,7-dihydro-5,8-methanocinnolin-8(5H)-yl]-N-methylacetamide]
14 | 0.127 µM | CC1(C)[C@@H]2CC[C@@]1(C(=O)N1CC(F)C1)c1nnc(-c3c(F)cccc3F)cc12 [Example 93, [(5S,8S)-3-(2,6-difluorophenyl)-9,9-dimethyl-6,7-dihydro-5,8-methanocinnolin-8(5H)-yl](3-fluoroazetidin-1-yl)methanone]
15 | 0.1 µM | CC(=O)OC[C@@]12CC[C@@H](c3cc(Oc4c(F)cccc4F)nnc31)C2(C)C [Example 339, ((5R,8R)-3-(2,6-difluorophenoxy)-9,9-dimethyl-5,6,7,8-tetrahydro-5,8-methanocinnolin-8-yl)methyl acetate]
16 | 1.5 µM | CC1(C)[C@@H]2CC[C@@]1(C(=O)NC1CCC1)c1nnc(-c3ccccc3F)cc12 [Example 333, (5S,8S)-N-cyclobutyl-3-(2-fluorophenyl)-9,9-dimethyl-5,6,7,8-tetrahydro-5,8-methanocinnoline-8-carboxamide]
17 | 0.984 µM | CC1(C)[C@H]2CC[C@]1(NS(C)(=O)=O)c1nnc(-c3c(F)cccc3F)cc12 [Example 282, N-((5R,8R)-3-(2,6-difluorophenyl)-9,9-dimethyl-5,6,7,8-tetrahydro-5,8-methanocinnolin-8-yl)methanesulfonamide]
18 | 0.129 µM | COCc1nc(C[C@@]23CC[C@@H](c4cc(-c5c(F)cccc5F)nnc42)C3(C)C)no1 [Example 62, (5R,8R)-3-(2,6-difluorophenyl)-8-{[5-(methoxymethyl)-1,2,4-oxadiazol-3-yl]methyl}-9,9-dimethyl-5,6,7,8-tetrahydro-5,8-methanocinnoline]
19 | 0.136 µM | COC(=O)c1ccc(COC[C@]23CC[C@H](c4cc(-c5ccccc5F)nnc42)C3(C)C)cc1 [Example 63, methyl 4-({[(5S,8S)-3-(2-fluorophenyl)-9,9-dimethyl-6,7-dihydro-5,8-methanocinnolin-8(5H)-yl]methoxy}methyl) benzoate]
20 | 0.233 µM | CC1(C)[C@H]2CC[C@]1(CN(CCC#N)C(=O)CO)c1nnc(-c3c(F)cccc3F)cc12 [Example 316, N-(2-cyanoethyl)-N-(((5R,8S)-3-(2,6-difluorophenyl)-9,9-dimethyl-5,6,7,8-tetrahydro-5,8-methanocinnolin-8-yl)methyl)-2-hydroxyacetamide]
21 | 0.09 µM | CC1(C)[C@H]2CC[C@]1(c1cnccn1)c1nnc(-c3c(F)cccc3F)cc12 [Example 161]
22 | 0.017 µM | CCc1nnc([C@@]23CC[C@@H](c4cc(-c5c(F)cccc5F)nnc42)C3(C)C)o1 [Example 122, (5R,8R)-3-(2,6-difluorophenyl)-9,9-dimethyl-8-(5-ethyl-1,3,4-oxadiazol-2-yl)-5,6,7,8-tetrahydro-5,8-methanocinnoline]
23 | 0.643 µM | CC1(C)[C@H]2CC[C@]1(C(=O)N1CC(F)(F)C1)c1nnc(-c3c(F)cccc3F)cc12 [Example 135, (3,3-difluoroazetidin-1-yl)((5R,8R)-3-(2,6-difluorophenyl)-9,9-dimethyl-5,6,7,8-tetrahydro-5,8-methanocinnolin-8-yl)methanone]
